Several values for one entry are separate records, joined by “and”; a condition that tells them apart may be missing. Equal entries are not always repeated. Entries after “also recorded” stand apart in the source; their conditions may differ. Where two headings read alike, the source gives them in different places.
Tests used:
SARS-CoV-2 [1] = experiment: Viral inhibition by Spike immunohistochemistry (IHC) assay in A549-ACE2 cells; type: cell-based; settings: for 80% Inhibition of SARS-CoV-2: concentration giving 80% inhibition; for IC50: read-out: IC-50, Anti-SARS-CoV-2
SARS-CoV-2 Alpha strain = experiment: microbe, parasite or virus in culture; type: cell-based; settings: read-out: efficacy (viral titer reduction)
SARS-CoV-2 Delta strain = experiment: microbe, parasite or virus in culture; type: cell-based; settings: read-out: efficacy (viral titer reduction)
[2] = test system: SARS-CoV-2 Omicron strain; experiment: microbe, parasite or virus in culture; type: cell-based; settings: read-out: efficacy (viral titer reduction)
[3] = test system: Human alveolar cell line A549; settings: A549, maximum concentration tested 1.34 μM
SARS-CoV-2 [4] = type: cell-based
[5] = test system: A549, HEK293, and HUH7.1 cell lines
[6] = test system: Human hepatoma cell line Huh7.1; settings: Huh7.1, maximum concentration tested 1.34 μM
[7] = test system: immortalized Human fetal renal cell line HEK293; settings: HEK293, maximum concentration tested 1.34 μM
[8] = intradermal injection; cited from earlier work
[9] = Severe acute respiratory syndrome coronavirus 2, plaque assay

With `COc1cccc2[nH]c(C(=O)N[C@@H](CC(C)C)C(=O)N[C@@H](C[C@@H]3CCNC3=O)C(=O)CO)cc12` [PF-00835231, reference compound] the “80% Inhibition of SARS-CoV-2” value (SARS-CoV-2 [1]) was 0.68 µM, the “80% Inhibition of SARS-CoV-2” value (SARS-CoV-2 [1]; listed as PF-00835231 (Pfizer)) was 0.68 ± 0.023 µM and the IC50 (SARS-CoV-2 [1]) was 0.23 ± 0.03 µM.
Work on `CCC(CC)COC(=O)[C@H](C)N[P@](=O)(OC[C@H]1O[C@@](C#N)(c2ccc3c(N)ncnn23)[C@H](O)[C@@H]1O)Oc1ccccc1` [Remdesivir, reference compound] yielded an IC50 (SARS-CoV-2 Alpha strain; [9]) of 0.248 µM, an IC50 (SARS-CoV-2 Delta strain; [9]) of 0.139 µM and an IC50 [2, 9] of 0.125 µM.
Compound mycolactone [MLN] has an IC50 (SARS-CoV-2 Alpha strain; plaque assay) of 0.02 µM, an IC50 (SARS-CoV-2 [1]; A549-ACE2 cells, Spike IHC) of 0.02 ± 0.006 µM and an inhibition (SARS-CoV-2 [1]; at 20 nM) of 90%. The average inhibition (SARS-CoV-2 [1]; at 30nM, IHC assay in triplicate) was 84%, the inhibition (SARS-CoV-2 [1]; at 42 nM) was 100% and the “80% Inhibition of SARS-CoV-2” value (SARS-CoV-2 [1]) was 0.03 µM and 0.03 ± 0.005 µM. For the same compound, the “viral inhibition against SARS-CoV-2” value (SARS-CoV-2 [1]; up to 60nM, IHC assay in triplicate) was 100%, the Cytotoxicity [3] was 17.12±9.1% and the “blocking of virus entry” value (SARS-CoV-2 [4]) was “complete blocking activity; also recorded: completely blocks; also recorded: complete prevention”. For the same compound, the “blocking of virus spread” value (SARS-CoV-2 [4]) was “complete blocking activity; also recorded: completely blocks; also recorded: complete prevention”, the “cytotoxicity IC50 breakpoint ratio versus anti-SARS-CoV-2 activity” value ([5]; 1.34 μM maximum concentration versus average IC50s) was “more than 65 ×” and the “cytotoxicity against human cell lines” value ([5]; in vitro) was “not cytotoxic”. The IC50 (SARS-CoV-2 Delta strain; plaque assay) was 0.015 µM, the Cytotoxicity [6] was 36.25±5.6% and the IC50 ([2]; plaque assay) was 0.007 µM. For the same compound, the Cytotoxicity [7] was 40.30±3.6% and the “half-life in the periphery blood circulation” value [8] was “short”.

Reference: patent US20240041823A1, “USE OF MYCOLACTONE (MLN) AND DERIVATIVES THEREOF FOR TREATMENT OF MICROBIAL INFECTIONS” (priority 2022, published 2024)
